What all share (assay type): biochemical
The target of assay [1] is T1, ABHD16A (WT and S355A mutant) (Homo sapiens, UniProt O95870).
T1 construct: All full-length cDNA constructs coding for serine hydrolases ABHD16A, and ABHD12 were purchased from Open Biosystems; FLAG; expressed in transfected cells; host or cells: HEK293T
Briefly: Activity-dependent labeling of ABHD16A by WHP01 in transfected HEK293T lysates. The settings on record: transfected HEK293T cell lysates.

Assay [2] concerns the target T2, ABHD16A (mouse) (Mus musculus, UniProt Q9Z1Q2).
T2 construct: full-length cDNA of human ABHD16A (Open Biosystems Catalog # MHS6278-202758315) or murine ABHD16A (Open Biosystems Catalog # MMM1013-202760516) in pCMV-SPORT6 vector; host or cells: HEK293T
Description: Lipid substrate hydrolysis assay, murine ABHD16A-transfected HEK293T membrane proteome. The settings on record: substrate 100 μM. As to the method: (§1) All the lipid species used in the lipid substrate hydrolysis assays were purchased from Avanti Polar Lipids Inc unless mentioned otherwise. In general, 20 μg of proteome was incubated with 100 μM lipid in a reaction volume of 100 μL in PBS at 30° C. with constant shaking. After 30 minutes the reaction was quenched with 350 μL of 2:1 (vol/vol) CHCl3: MeOH, doped with 0.5 nmol internal standard (17:1 FFA). The mixture was vortexed, and the centrifuged at 2800×g for 5 minutes to separate the aqueous (top) and organic (bottom) phase. The organic phase was collected. 5 μL of formic acid was added to the aqueous phase, and extracted again using 350 μL of 2:1 (vol/vol) CHCl3: MeOH using above mentioned protocol. The organic phase was collected, and pooled with the organic phase from the first extraction. […] All the data was collected and analyzed using the Agilent MassHunter Workstation software version B.04 using the Data Acquisition and Quantitative Analysis programs respectively. Measuring the area under the peak, and normalizing it to the internal standard quantified the product release for the lipid substrate hydrolysis assays. […] Some products from the substrate hydrolysis assays were detected in positive ion mode for qualitative identification. […]

Assay [3] is described as follows: Lipid substrate hydrolysis assay, mock-transfected HEK293T membrane proteome. The settings on record: substrate 100 μM. As to the method:
as §1

The source of these data is patent US20170313669A1, “LACTONE COMPOUNDS AND METHODS OF MAKING AND USING SAME” (THE SCRIPPS RESEARCH INSTITUTE, priority 2015, published 2017).

T2 sequence (Q9Z1Q2 whole entry): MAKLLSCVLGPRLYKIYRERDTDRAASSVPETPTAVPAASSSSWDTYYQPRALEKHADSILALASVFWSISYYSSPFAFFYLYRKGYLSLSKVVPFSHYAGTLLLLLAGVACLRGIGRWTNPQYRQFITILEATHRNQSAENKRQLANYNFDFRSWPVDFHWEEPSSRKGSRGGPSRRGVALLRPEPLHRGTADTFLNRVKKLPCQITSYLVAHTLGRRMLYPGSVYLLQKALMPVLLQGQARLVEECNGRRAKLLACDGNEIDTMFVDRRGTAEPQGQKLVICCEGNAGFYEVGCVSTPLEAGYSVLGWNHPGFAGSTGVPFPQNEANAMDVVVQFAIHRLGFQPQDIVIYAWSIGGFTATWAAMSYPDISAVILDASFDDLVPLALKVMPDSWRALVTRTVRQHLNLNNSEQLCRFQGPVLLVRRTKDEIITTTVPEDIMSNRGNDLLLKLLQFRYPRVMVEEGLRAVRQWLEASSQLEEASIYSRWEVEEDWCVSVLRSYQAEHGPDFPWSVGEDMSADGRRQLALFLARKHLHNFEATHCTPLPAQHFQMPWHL
T1 sequence (O95870 whole entry S355A): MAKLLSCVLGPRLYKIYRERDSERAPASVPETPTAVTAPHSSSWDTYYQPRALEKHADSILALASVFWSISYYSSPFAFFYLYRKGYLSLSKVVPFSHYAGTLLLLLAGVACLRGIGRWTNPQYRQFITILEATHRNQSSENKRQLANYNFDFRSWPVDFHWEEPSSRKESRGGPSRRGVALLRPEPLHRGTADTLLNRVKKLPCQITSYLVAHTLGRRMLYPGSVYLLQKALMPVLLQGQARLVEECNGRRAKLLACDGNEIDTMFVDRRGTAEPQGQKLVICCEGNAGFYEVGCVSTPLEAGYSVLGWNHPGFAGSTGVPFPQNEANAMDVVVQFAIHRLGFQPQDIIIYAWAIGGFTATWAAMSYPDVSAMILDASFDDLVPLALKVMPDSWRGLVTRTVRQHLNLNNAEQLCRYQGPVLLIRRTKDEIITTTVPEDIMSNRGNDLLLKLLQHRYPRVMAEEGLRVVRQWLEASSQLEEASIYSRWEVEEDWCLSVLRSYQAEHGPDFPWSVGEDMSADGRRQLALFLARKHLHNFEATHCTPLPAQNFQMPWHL

Regarding `CCCCCCCCCCCCCC1OC(=O)/C1=C\CCCC(=O)NCCCCCNC(=O)c1ccc(-c2c3ccc(=[N+](C)C)cc-3oc3cc(N(C)C)ccc23)c(C(=O)[O-])c1` (stereo not drawn) [WHP01, (Z)-2-(6-(dimethylamino)-3-(dimethyliminio)-3H-xanthen-9-yl)-5-((5-(5-(2-oxo-4-tridecyloxetan-3-ylidene)pentanamido)pentyl)carbamoyl)benzoate], the “labeling of ABHD16A” value in assay [1] is on record as “labeled WT-ABHD16A but not the catalytic serine S355A mutant”.

As to PG 16:0/18:1, the “Lipase activity, ABHD16A, Mean” value in assay [2] is recorded as 12.5 nmol/mg/min. In addition, the “Lipase activity, Mock, Mean” value in assay [3] is reported as 3.8 nmol/mg/min.
